Experimental data as given in patent publication US6365606B1, “6,5-fused aromatic ring systems having enhanced phosphodiesterase IV inhibitory activity” (Euro-Celtique, S.A., priority 1996, dated 2002).

Assays:
Assay type in all cases: biochemical
[1] = tested on: Type IV PDE isolated from bovine tracheal smooth muscle; assay: Type IV PDE activity, hydrolysis of [3H]-cyclic AMP; conditions: bovine tracheal smooth muscle enzyme; 0.2 μM cyclic AMP
Protocol: The Type IV PDE is isolated from bovine tracheal smooth muscle using a procedure similar to that previously described by Silver, P. J., et al.: Eur. J. Pharmacol. 150:85, 1988.(1). Eiiefly, smooth muscle from bovine trachea is minced and homogenized using a polytron in 10 volumes of an extraction buffer containing 10 mM Tris-acetate (pH 7.5), 2 mM magnesium chloride, 1 mM dithiothreitol and 2,000 units/ml of aprotinin. This and all subsequent procedures are performed at 0-4EC. The homogenate is sonicated and then centrifuged at 48,000×g for 30 minutes. The resulting supernatant is applied to a DEAE Trisacryl M column previously equilibrated with sodium acetate and dithiothreitol. After applications of the sample, the column is washed with sodium acetate/dithiothreitol, after which the different forms of PDE are eluted from the column using a linear Tris-HCl/NaCl gradient. Fractions containing Type IV PDE are collected, dialyzed and concentrated to 14% of the original volume. The concentrated fractions are diluted to 50% with ethylene glycol and stored at −20EC.
Enzyme activity is assessed by measuring the hydrolysis of [^3H]-cyclic AMP, as described by Thompson, W. J., et al.: Adv. Cyclic Nucleotide Res. 10:69, 1979. The cyclic AMP concentration used in this assay is 0.2 μM, which approximates to the Km value. Protein concentration is adjusted to ensure that no more than 15% of the available substrate is hydrolyzed during the incubation period.
All test compounds are dissolved in dimethyl sulfoxide (final concentration of 2.5%). This concentration of dimethyl sulfoxide inhibits enzyme activity by approximately 10%.
The compounds are tested over concentration range: 0.1, 1, 10, 100 uM (n=1), and IC50 determinations are made using 5 appropriate concentrations (n=2).

[2] = target: T1, Type III PDE isolated from human platelets (Homo sapiens, UniProt Q14432); assay: Type III PDE activity, hydrolysis of [3H]-cyclic AMP; conditions: human platelet enzyme; 0.2 μM cyclic AMP
T1 construct: Fractions containing PDE III activity are pooled and dialyzed; from tissue; host or cells: human platelets (100,000 x g supernatant, DEAE-Trisacryl M fraction)
Protocol: After application of the sample, the column is washed with several bed volumes of buffer B, after which the different forms of PDE are eluted from the column using two successive linear NaCl gradients (0.05-0.15 M, 300 ml total; 0.15-0.40 M, 200 ml total). Five milliliter fractions are collected and assayed for cyclic AMP and cyclic GMP PDE activity.

[3] = target: T2, Type V PDE isolated from platelets (Homo sapiens, UniProt O76074); assay: Type V PDE activity, hydrolysis of [3H]-cyclic GMP; conditions: platelet enzyme; 0.2 uM cyclic GMP
T2 construct: Fractions that contain PDE V are pooled and dialyzed overnight; from tissue; host or cells: platelets (supernatant, DEAE-Trisacryl M fraction)
Protocol: Briefly, 1-2 units of platelets are suspended in an equal volume of buffer A (20 mM Tris-HCl, pH 7.5, containing 2 mM magnesium acetate, 1 mM dithiothreitol, and 5 mM Na2EDTA) using a polytron. The proteinase inhibitor phenylmethylsulfonyl fluoride (PMSF) are also included in this buffer at a final concentration of 200 uM. […] The homogenate is then centrifuged at 100,000 rpm for 60 minutes. The supernatant is then removed and filtered through four layers of gauze and applied to a DEAE-Trisacryl M column. The column is washed with several bed volumes of buffer B (20 mM Tris-HCl, pH 7.5, containing 2 mM magnesium acetate, 1 mM diothiothreitol, and […] PMSF) and eluted by two successive linear NaCl gradients (0.05-0.15 M, 300 ml total; 0.15-0.40 M, 200 ml total). Five ml fractions are collected and assayed for cyclic AMP and cyclic GMP PDE activity. Fractions that contain PDE V are pooled and dialyzed overnight against 4 L of buffer C (20 mM Tris-HCl, pH 7.5, containing 2 mM magnesium acetate and proteinase inhibitors). […] PDE V can typically be retained for up to four weeks with little or no loss of activity.
The reference Type V PDE inhibitor zaprinast is evaluated with each assay.

T1 sequence (Q14432 whole entry): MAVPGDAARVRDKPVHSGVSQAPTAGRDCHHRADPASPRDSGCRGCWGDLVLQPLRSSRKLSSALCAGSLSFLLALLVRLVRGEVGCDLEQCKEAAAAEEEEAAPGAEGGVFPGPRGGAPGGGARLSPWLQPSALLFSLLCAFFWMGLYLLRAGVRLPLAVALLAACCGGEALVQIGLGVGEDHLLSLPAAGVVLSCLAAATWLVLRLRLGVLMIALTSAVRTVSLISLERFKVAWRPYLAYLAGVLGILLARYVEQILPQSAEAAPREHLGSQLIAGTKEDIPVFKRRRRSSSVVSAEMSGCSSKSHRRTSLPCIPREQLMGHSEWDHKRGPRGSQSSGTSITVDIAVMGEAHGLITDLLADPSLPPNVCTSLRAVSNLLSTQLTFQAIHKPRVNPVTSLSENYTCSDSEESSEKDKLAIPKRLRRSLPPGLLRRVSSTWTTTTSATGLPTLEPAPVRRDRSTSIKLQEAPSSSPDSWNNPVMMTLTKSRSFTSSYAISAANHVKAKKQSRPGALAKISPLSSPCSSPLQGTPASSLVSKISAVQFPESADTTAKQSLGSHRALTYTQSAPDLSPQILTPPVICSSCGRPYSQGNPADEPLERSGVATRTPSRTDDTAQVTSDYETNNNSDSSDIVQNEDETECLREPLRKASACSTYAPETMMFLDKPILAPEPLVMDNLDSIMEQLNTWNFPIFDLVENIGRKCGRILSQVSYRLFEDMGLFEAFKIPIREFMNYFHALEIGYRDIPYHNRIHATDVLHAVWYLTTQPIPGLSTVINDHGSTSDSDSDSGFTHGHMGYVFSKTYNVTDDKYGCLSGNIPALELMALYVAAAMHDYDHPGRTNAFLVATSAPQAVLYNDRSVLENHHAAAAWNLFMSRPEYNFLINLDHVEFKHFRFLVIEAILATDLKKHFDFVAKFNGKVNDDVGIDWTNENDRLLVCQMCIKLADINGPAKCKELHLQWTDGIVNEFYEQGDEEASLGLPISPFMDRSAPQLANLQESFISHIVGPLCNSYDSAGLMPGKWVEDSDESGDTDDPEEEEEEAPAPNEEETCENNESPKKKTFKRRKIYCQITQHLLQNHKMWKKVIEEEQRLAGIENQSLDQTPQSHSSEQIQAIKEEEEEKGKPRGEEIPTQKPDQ

IC50 [1] | IC50 [2] | IC50 [3] | Compound
420 nM | > 300000 nM | 19500 nM | CC(C)(C)c1cc(Cc2nc3cc(Cl)cc(C#CCO)c3o2)cc(C(C)(C)C)c1O [Example 4, 3-(5-chloro-2-(4-hydroxy-3,5-bis((1,1-dimethyl)ethyl)benzyl)benzoxazol-7-yl)prop-2-yn-1-ol]
3700 nM | – | – | COc1ccc(C2CNC(=O)C2)cc1OC1CCCC1 (centres unmarked) [Rolipram, reference compound]
321000 nM | – | – | Cn1c(=O)c2[nH]cnc2n(C)c1=O [Theophylline, reference compound]

Further lines, the molecule ahead of its results:

Compound | IC50 [1] | IC50 [2] | IC50 [3]
CC(C)(C)c1cc(Cc2nc3cc(Cl)cc(C#Cc4ccccn4)c3o2)cc(C(C)(C)C)c1O [Example 1, 5-chloro-2-(3,5-di-t-butyl-4-hydroxy-benzyl)-7-(2-(2-pyridyl)-ethynyl)-benzoxazole] | 13 nM | – | –
CC(C)(C)c1cc(Cc2nc3cccc(C#Cc4ccccn4)c3o2)cc(C(C)(C)C)c1O [Example 2] | 700 nM | – | –
CC(C)(C)c1cc(Cc2nc3cc(Cl)cc(C#Cc4nccs4)c3o2)cc(C(C)(C)C)c1O [Example 3, 5-chloro-2-(3,5-di-t-butyl-4-hydroxy-benzyl)-7-(2-(2-thiazolyl)-ethynyl)-benzoxazole] | 14 nM | – | –
